Source: ChEMBL document CHEMBL3046766, “Design, synthesis, and insecticidal evaluation of new benzoylureas containing isoxazoline and isoxazole group” (2011)

Experiments:
Assay type in all cases: functional
Mythimna separata [1] = assay: Insecticidal activity against Mythimna separata (Oriental armyworm) fourth-instar larvae infested compound pre-treated corn leaves assessed as larvicidal activity at 25 mg/L measured 4 days post treatment
Mythimna separata [2] = assay: Insecticidal activity against Mythimna separata (Oriental armyworm) fourth-instar larvae infested compound pre-treated corn leaves assessed as larvicidal activity at 5 mg/L measured 4 days post treatment
Plutella xylostella [3] = assay: Insecticidal activity against Plutella xylostella (diamondback moth) […] larvae infested on compound pre-treated fresh cabbage leaves assessed as larvicidal activity at 2 mg/L measured 3 days post treatment
Plutella xylostella [4] = assay: Insecticidal activity against Plutella xylostella (diamondback moth) […] larvae infested on compound pre-treated fresh cabbage leaves assessed as larvicidal activity at 5 mg/L measured 3 days post treatment
Culex pipiens pallens [5] = assay: Insecticidal activity against Culex pipiens pallens (mosquito) fourth-instar larvae assessed as larvicidal activity at 0.1 mg/L measured 8 days post treatment; details: 192 h
Mythimna separata [6] = assay: Insecticidal activity against Mythimna separata (Oriental armyworm) fourth-instar larvae infested compound pre-treated corn leaves assessed as larvicidal activity at 10 mg/L measured 4 days post treatment
Culex pipiens pallens [7] = assay: Insecticidal activity against Culex pipiens pallens (mosquito) fourth-instar larvae assessed as larvicidal activity at 0.25 mg/L measured 8 days post treatment; details: 192 h
Plutella xylostella [8] = assay: Insecticidal activity against Plutella xylostella (diamondback moth) […] larvae infested on compound pre-treated fresh cabbage leaves assessed as larvicidal activity at 0.2 mg/L measured 3 days post treatment
Mythimna separata [9] = assay: Insecticidal activity against Mythimna separata (Oriental armyworm) fourth-instar larvae infested compound pre-treated corn leaves assessed as larvicidal activity at 50 mg/L measured 4 days post treatment
Plutella xylostella [10] = assay: Insecticidal activity against Plutella xylostella (diamondback moth) […] larvae infested on compound pre-treated fresh cabbage leaves assessed as larvicidal activity at 0.02 mg/L measured 3 days post treatment
Culex pipiens pallens [11] = assay: Insecticidal activity against Culex pipiens pallens (mosquito) fourth-instar larvae assessed as larvicidal activity at 2 mg/L measured 8 days post treatment; details: 192 h
Plutella xylostella [12] = assay: Insecticidal activity against Plutella xylostella (diamondback moth) […] larvae infested on compound pre-treated fresh cabbage leaves assessed as larvicidal activity at 20 mg/L measured 3 days post treatment
Mythimna separata [13] = assay: Insecticidal activity against Mythimna separata (Oriental armyworm) fourth-instar larvae infested compound pre-treated corn leaves assessed as larvicidal activity at 200 mg/L measured 4 days post treatment
Plutella xylostella [14] = assay: Insecticidal activity against Plutella xylostella (diamondback moth) […] larvae infested on compound pre-treated fresh cabbage leaves assessed as larvicidal activity at 100 mg/L measured 3 days post treatment
Plutella xylostella [15] = assay: Insecticidal activity against Plutella xylostella (diamondback moth) […] larvae infested on compound pre-treated fresh cabbage leaves assessed as larvicidal activity at 200 mg/L measured 3 days post treatment
Mythimna separata [16] = assay: Insecticidal activity against Mythimna separata (Oriental armyworm) fourth-instar larvae infested compound pre-treated corn leaves assessed as larvicidal activity at 100 mg/L measured 4 days post treatment
Culex pipiens pallens [17] = assay: Insecticidal activity against Culex pipiens pallens (mosquito) fourth-instar larvae assessed as larvicidal activity at 1 mg/L measured 8 days post treatment; details: 192 h
Culex pipiens pallens [18] = assay: Insecticidal activity against Culex pipiens pallens (mosquito) fourth-instar larvae assessed as larvicidal activity at 0.5 mg/L measured 8 days post treatment; details: 192 h
Mythimna separata [19] = assay: Insecticidal activity against Mythimna separata (Oriental armyworm) fourth-instar larvae infested compound pre-treated corn leaves assessed as larvicidal activity at 1 mg/L measured 4 days post treatment
Culex pipiens pallens [20] = assay: Insecticidal activity against Culex pipiens pallens (mosquito) fourth-instar larvae assessed as larvicidal activity at 0.05 mg/L measured 8 days post treatment; details: 192 h
Mythimna separata [21] = assay: Insecticidal activity against Mythimna separata (Oriental armyworm) fourth-instar larvae infested compound pre-treated corn leaves assessed as larvicidal activity at 2.5 mg/L measured 4 days post treatment
Culex pipiens pallens [22] = assay: Insecticidal activity against Culex pipiens pallens (mosquito) fourth-instar larvae assessed as larvicidal activity at 0.025 mg/L measured 8 days post treatment; details: 192 h

**Q.** Which results are given for CC(C)(C)C1CC(c2ccc(NC(=O)NC(=O)c3c(F)cccc3F)cc2)=NO1 (stereo unspecified)?
**A.** mortality at 25 µg/mL (Mythimna separata [1]): 100%; mortality at 5 µg/mL (Mythimna separata [2]): 40%; mortality at 2 µg/mL (Plutella xylostella [3]): 80%; mortality at 5 µg/mL (Plutella xylostella [4]): 100%; mortality at 0.1 µg/mL (Culex pipiens pallens [5]): 50%; mortality at 10 µg/mL (Mythimna separata [6]): 100%; mortality at 0.25 µg/mL (Culex pipiens pallens [7]): 100%; mortality at 0.2 µg/mL (Plutella xylostella [8]): 70%; mortality at 50 µg/mL (Mythimna separata [9]): 100%; mortality at 0.02 µg/mL (Plutella xylostella [10]): 10%

**Q.** How did the mortality at 2 µg/mL (Plutella xylostella [3]) turn out when O=C(NC(=O)c1c(F)cccc1F)Nc1ccc(C2=NOC(c3ccc(F)cc3)C2)cc1 (stereo unspecified) was run?
**A.** Its mortality at 2 µg/mL is 30%.

**Q.** What about the mortality at 5 µg/mL (Plutella xylostella [4]) of the same compound?
**A.** Its mortality at 5 µg/mL is 80%.

**Q.** And the mortality at 2 µg/mL (Culex pipiens pallens [11])?
**A.** Its mortality at 2 µg/mL is 40%.

**Q.** What about the mortality at 20 µg/mL (Plutella xylostella [12]) of the same compound?
**A.** The mortality at 20 µg/mL was 100%.

**Q.** And the mortality at 200 µg/mL (Mythimna separata [13])?
**A.** The mortality at 200 µg/mL was 10%.

**Q.** For CCCCC1CC(c2ccc(NC(=O)NC(=O)c3c(F)cccc3F)cc2)=NO1 (stereo unspecified), which mortality at 100 µg/mL (Plutella xylostella [14]) is on record?
**A.** The mortality at 100 µg/mL was 70%.

**Q.** What about the mortality at 2 µg/mL (Culex pipiens pallens [11]) of the same compound?
**A.** Its mortality at 2 µg/mL is 30%.

**Q.** And the mortality at 200 µg/mL (Plutella xylostella [15])?
**A.** Its mortality at 200 µg/mL is 80%.

**Q.** What about the mortality at 50 µg/mL (Mythimna separata [9]) of the same compound?
**A.** The mortality at 50 µg/mL was 0%.

**Q.** What about the mortality at 20 µg/mL (Plutella xylostella [12]) of the same compound?
**A.** Its mortality at 20 µg/mL is 20%.

**Q.** What about the mortality at 100 µg/mL (Mythimna separata [16]) of the same compound?
**A.** Its mortality at 100 µg/mL is 100%.

**Q.** What about the mortality at 200 µg/mL (Mythimna separata [13]) of the same compound?
**A.** The mortality at 200 µg/mL was 100%.

**Q.** With O=C(NC(=O)c1c(F)cccc1F)Nc1ccc(C2=NOC(CBr)C2)cc1 (stereo unspecified) as the compound, how does the mortality at 2 µg/mL (Culex pipiens pallens [11]) read?
**A.** Its mortality at 2 µg/mL is 60%.

**Q.** And the mortality at 200 µg/mL (Plutella xylostella [15])?
**A.** Its mortality at 200 µg/mL is 40%.

**Q.** And the mortality at 50 µg/mL (Mythimna separata [9])?
**A.** The mortality at 50 µg/mL was 20%.

**Q.** What about the mortality at 20 µg/mL (Plutella xylostella [12]) of the same compound?
**A.** Its mortality at 20 µg/mL is 0%.

**Q.** And the mortality at 100 µg/mL (Mythimna separata [16])?
**A.** Its mortality at 100 µg/mL is 100%.

**Q.** CCCCCCCC1CC(c2ccc(NC(=O)NC(=O)c3c(F)cccc3F)cc2)=NO1 (stereo unspecified) was tested. Which mortality at 2 µg/mL (Culex pipiens pallens [11]) did it give?
**A.** Its mortality at 2 µg/mL is 50%.

**Q.** And the mortality at 200 µg/mL (Plutella xylostella [15])?
**A.** The mortality at 200 µg/mL was 0%.

**Q.** What about the mortality at 50 µg/mL (Mythimna separata [9]) of the same compound?
**A.** Its mortality at 50 µg/mL is 60%.

**Q.** What about the mortality at 100 µg/mL (Mythimna separata [16]) of the same compound?
**A.** The mortality at 100 µg/mL was 100%.

**Q.** With N#CC1CC(c2ccc(NC(=O)NC(=O)c3c(F)cccc3F)cc2)=NO1 (stereo unspecified) as the compound, how does the mortality at 0.1 µg/mL (Culex pipiens pallens [5]) read?
**A.** Its mortality at 0.1 µg/mL is 70%.

**Q.** And the mortality at 0.25 µg/mL (Culex pipiens pallens [7])?
**A.** The mortality at 0.25 µg/mL was 100%.

**Q.** What about the mortality at 200 µg/mL (Plutella xylostella [15]) of the same compound?
**A.** Its mortality at 200 µg/mL is 0%.

**Q.** What about the mortality at 50 µg/mL (Mythimna separata [9]) of the same compound?
**A.** Its mortality at 50 µg/mL is 0%.

**Q.** What about the mortality at 100 µg/mL (Mythimna separata [16]) of the same compound?
**A.** Its mortality at 100 µg/mL is 100%.

**Q.** Which results are given for COC(=O)C1CC(c2ccc(NC(=O)NC(=O)c3c(F)cccc3F)cc2)=NO1 (stereo unspecified)?
**A.** mortality at 2 µg/mL (Culex pipiens pallens [11]): 60%; mortality at 200 µg/mL (Plutella xylostella [15]): 10%; mortality at 50 µg/mL (Mythimna separata [9]): 0%; mortality at 100 µg/mL (Mythimna separata [16]): 100%

**Q.** Which results are given for CCCCOCC1CC(c2ccc(NC(=O)NC(=O)c3c(F)cccc3F)cc2)=NO1 (stereo unspecified)?
**A.** mortality at 1 µg/mL (Culex pipiens pallens [17]): 80%; mortality at 2 µg/mL (Culex pipiens pallens [11]): 100%; mortality at 200 µg/mL (Plutella xylostella [15]): 10%; mortality at 50 µg/mL (Mythimna separata [9]): 40%; mortality at 100 µg/mL (Mythimna separata [16]): 100%

**Q.** Which mortality at 2 µg/mL (Culex pipiens pallens [11]) does the source give for O=C(NC(=O)c1c(F)cccc1F)Nc1ccc(C2=NOC(COCC(F)(F)F)C2)cc1 (stereo unspecified) here?
**A.** The mortality at 2 µg/mL was 40%.

**Q.** And the mortality at 200 µg/mL (Plutella xylostella [15])?
**A.** Its mortality at 200 µg/mL is 0%.

**Q.** What about the mortality at 50 µg/mL (Mythimna separata [9]) of the same compound?
**A.** Its mortality at 50 µg/mL is 60%.

**Q.** And the mortality at 100 µg/mL (Mythimna separata [16])?
**A.** The mortality at 100 µg/mL was 100%.

**Q.** O=C(NC(=O)c1c(F)cccc1F)Nc1ccc(C2=NOC(c3ccccc3)C2)cc1 (stereo unspecified) was tested. Which mortality at 0.1 µg/mL (Culex pipiens pallens [5]) did it give?
**A.** Its mortality at 0.1 µg/mL is 90%.

**Q.** What about the mortality at 0.25 µg/mL (Culex pipiens pallens [7]) of the same compound?
**A.** Its mortality at 0.25 µg/mL is 100%.

**Q.** What about the mortality at 200 µg/mL (Plutella xylostella [15]) of the same compound?
**A.** The mortality at 200 µg/mL was 50%.

**Q.** And the mortality at 50 µg/mL (Mythimna separata [9])?
**A.** Its mortality at 50 µg/mL is 0%.

**Q.** And the mortality at 20 µg/mL (Plutella xylostella [12])?
**A.** Its mortality at 20 µg/mL is 30%.

**Q.** What about the mortality at 100 µg/mL (Mythimna separata [16]) of the same compound?
**A.** The mortality at 100 µg/mL was 100%.

**Q.** With CC1(c2ccccc2)CC(c2ccc(NC(=O)NC(=O)c3c(F)cccc3F)cc2)=NO1 (stereo unspecified) as the compound, how does the mortality at 100 µg/mL (Plutella xylostella [14]) read?
**A.** The mortality at 100 µg/mL was 80%.

**Q.** And the mortality at 0.1 µg/mL (Culex pipiens pallens [5])?
**A.** Its mortality at 0.1 µg/mL is 80%.

**Q.** What about the mortality at 0.25 µg/mL (Culex pipiens pallens [7]) of the same compound?
**A.** The mortality at 0.25 µg/mL was 100%.

**Q.** And the mortality at 200 µg/mL (Plutella xylostella [15])?
**A.** The mortality at 200 µg/mL was 100%.

**Q.** And the mortality at 50 µg/mL (Mythimna separata [9])?
**A.** The mortality at 50 µg/mL was 60%.

**Q.** And the mortality at 0.5 µg/mL (Culex pipiens pallens [18])?
**A.** Its mortality at 0.5 µg/mL is 100%.

**Q.** And the mortality at 20 µg/mL (Plutella xylostella [12])?
**A.** The mortality at 20 µg/mL was 30%.

**Q.** What about the mortality at 100 µg/mL (Mythimna separata [16]) of the same compound?
**A.** The mortality at 100 µg/mL was 100%.

**Q.** What about the mortality at 200 µg/mL (Mythimna separata [13]) of the same compound?
**A.** Its mortality at 200 µg/mL is 100%.

**Q.** With O=C(NC(=O)c1c(F)cccc1F)Nc1ccc(CO/N=C(/c2ccc(Cl)cc2)C2CC2)cc1 [FLUCYCLOXURON] as the compound, how does the mortality at 1 µg/mL (Mythimna separata [19]) read?
**A.** The mortality at 1 µg/mL was 10%.

**Q.** And the mortality at 5 µg/mL (Mythimna separata [2])?
**A.** The mortality at 5 µg/mL was 90%.

**Q.** And the mortality at 0.05 µg/mL (Culex pipiens pallens [20])?
**A.** Its mortality at 0.05 µg/mL is 100%.

**Q.** And the mortality at 0.1 µg/mL (Culex pipiens pallens [5])?
**A.** The mortality at 0.1 µg/mL was 100%.

**Q.** And the mortality at 10 µg/mL (Mythimna separata [6])?
**A.** The mortality at 10 µg/mL was 95%.

**Q.** And the mortality at 2.5 µg/mL (Mythimna separata [21])?
**A.** The mortality at 2.5 µg/mL was 50%.

**Q.** And the mortality at 0.025 µg/mL (Culex pipiens pallens [22])?
**A.** The mortality at 0.025 µg/mL was 15%.
